Reference: ChEMBL document CHEMBL5291721, “A preclinical secondary pharmacology resource illuminates target-adverse drug reaction associations of marketed drugs” (Nat Commun, 2023)

Assays:
Acetylcholinesterase = Acetylcholinesterase (Homo sapiens, UniProt P22303); type: functional
Adenosine receptor A3 = molecular target: T1, Adenosine receptor A3 (Homo sapiens, UniProt P0DMS8)
T1 sequence (P0DMS8 whole entry): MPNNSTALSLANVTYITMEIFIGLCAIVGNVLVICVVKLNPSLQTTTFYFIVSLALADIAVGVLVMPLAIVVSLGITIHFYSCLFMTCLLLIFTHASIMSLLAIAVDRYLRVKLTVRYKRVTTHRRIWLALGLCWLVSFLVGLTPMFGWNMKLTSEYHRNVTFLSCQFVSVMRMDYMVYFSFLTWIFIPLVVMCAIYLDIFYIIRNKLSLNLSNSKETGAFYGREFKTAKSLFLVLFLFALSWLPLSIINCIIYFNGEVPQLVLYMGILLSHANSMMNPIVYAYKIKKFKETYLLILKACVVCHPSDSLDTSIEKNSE

[1] = molecular target: T2, Alpha-2A adrenergic receptor (Homo sapiens, UniProt P08913)
T2 sequence (P08913 whole entry): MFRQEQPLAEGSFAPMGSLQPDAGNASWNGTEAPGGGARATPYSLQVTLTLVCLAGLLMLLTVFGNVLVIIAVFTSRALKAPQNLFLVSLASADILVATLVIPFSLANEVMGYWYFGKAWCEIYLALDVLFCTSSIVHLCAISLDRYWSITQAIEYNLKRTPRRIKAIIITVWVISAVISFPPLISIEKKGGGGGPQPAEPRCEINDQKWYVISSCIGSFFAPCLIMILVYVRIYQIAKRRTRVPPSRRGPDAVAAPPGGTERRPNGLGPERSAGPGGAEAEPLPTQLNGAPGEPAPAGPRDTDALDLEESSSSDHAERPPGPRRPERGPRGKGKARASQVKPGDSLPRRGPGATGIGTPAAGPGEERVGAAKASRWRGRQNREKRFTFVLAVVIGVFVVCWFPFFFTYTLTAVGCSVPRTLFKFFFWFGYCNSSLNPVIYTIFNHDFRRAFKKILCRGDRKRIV

[2] = molecular target: T3, Muscarinic acetylcholine receptor M2 (Homo sapiens, UniProt P08172)
T3 sequence (P08172 whole entry): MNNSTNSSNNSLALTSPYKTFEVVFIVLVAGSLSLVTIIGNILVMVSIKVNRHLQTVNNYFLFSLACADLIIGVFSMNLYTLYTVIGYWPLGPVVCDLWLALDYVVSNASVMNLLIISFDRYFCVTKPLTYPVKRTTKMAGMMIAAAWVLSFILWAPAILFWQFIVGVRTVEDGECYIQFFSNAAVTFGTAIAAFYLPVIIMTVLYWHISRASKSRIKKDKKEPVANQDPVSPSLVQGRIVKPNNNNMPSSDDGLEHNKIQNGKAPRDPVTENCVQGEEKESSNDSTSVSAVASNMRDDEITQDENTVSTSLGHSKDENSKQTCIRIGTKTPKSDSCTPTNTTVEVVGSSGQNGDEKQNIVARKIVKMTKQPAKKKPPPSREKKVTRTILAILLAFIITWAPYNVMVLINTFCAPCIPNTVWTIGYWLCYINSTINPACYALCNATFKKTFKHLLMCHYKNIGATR

D(3) dopamine receptor = D(3) dopamine receptor (Homo sapiens, UniProt P35462)
Sequence of D(3) dopamine receptor (P35462 whole entry): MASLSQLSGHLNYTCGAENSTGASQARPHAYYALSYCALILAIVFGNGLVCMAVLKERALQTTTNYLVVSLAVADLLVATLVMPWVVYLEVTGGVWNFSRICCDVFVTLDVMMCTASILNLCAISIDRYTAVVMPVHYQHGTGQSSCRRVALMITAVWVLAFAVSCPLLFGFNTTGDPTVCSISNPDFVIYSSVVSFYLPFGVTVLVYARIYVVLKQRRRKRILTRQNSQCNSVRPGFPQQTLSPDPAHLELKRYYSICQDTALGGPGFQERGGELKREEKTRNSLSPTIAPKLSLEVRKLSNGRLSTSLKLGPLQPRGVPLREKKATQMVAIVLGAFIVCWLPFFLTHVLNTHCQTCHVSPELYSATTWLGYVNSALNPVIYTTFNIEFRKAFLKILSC

Estrogen receptor = molecular target: T4, Estrogen receptor (Homo sapiens, UniProt P03372)
T4 sequence (P03372 whole entry): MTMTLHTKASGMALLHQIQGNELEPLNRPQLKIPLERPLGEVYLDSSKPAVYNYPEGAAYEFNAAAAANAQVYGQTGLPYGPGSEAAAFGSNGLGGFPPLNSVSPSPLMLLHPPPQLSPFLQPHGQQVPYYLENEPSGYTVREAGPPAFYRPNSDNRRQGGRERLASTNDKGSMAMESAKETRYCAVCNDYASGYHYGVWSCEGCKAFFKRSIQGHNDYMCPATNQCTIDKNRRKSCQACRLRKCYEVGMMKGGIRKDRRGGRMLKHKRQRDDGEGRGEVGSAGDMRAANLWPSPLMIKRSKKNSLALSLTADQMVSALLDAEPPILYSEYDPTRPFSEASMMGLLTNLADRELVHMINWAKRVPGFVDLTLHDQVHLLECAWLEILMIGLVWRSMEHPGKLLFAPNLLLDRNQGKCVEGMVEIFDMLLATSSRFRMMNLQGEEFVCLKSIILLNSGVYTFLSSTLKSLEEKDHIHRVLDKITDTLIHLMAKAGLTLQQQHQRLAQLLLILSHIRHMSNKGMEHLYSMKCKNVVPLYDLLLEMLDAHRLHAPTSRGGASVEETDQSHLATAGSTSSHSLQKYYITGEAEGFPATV

[3] = molecular target: Voltage-gated inwardly rectifying potassium channel KCNH2 (Homo sapiens, UniProt Q12809); type: functional; settings: read-out: AC50
Sequence of Voltage-gated inwardly rectifying potassium channel KCNH2 (Q12809 whole entry): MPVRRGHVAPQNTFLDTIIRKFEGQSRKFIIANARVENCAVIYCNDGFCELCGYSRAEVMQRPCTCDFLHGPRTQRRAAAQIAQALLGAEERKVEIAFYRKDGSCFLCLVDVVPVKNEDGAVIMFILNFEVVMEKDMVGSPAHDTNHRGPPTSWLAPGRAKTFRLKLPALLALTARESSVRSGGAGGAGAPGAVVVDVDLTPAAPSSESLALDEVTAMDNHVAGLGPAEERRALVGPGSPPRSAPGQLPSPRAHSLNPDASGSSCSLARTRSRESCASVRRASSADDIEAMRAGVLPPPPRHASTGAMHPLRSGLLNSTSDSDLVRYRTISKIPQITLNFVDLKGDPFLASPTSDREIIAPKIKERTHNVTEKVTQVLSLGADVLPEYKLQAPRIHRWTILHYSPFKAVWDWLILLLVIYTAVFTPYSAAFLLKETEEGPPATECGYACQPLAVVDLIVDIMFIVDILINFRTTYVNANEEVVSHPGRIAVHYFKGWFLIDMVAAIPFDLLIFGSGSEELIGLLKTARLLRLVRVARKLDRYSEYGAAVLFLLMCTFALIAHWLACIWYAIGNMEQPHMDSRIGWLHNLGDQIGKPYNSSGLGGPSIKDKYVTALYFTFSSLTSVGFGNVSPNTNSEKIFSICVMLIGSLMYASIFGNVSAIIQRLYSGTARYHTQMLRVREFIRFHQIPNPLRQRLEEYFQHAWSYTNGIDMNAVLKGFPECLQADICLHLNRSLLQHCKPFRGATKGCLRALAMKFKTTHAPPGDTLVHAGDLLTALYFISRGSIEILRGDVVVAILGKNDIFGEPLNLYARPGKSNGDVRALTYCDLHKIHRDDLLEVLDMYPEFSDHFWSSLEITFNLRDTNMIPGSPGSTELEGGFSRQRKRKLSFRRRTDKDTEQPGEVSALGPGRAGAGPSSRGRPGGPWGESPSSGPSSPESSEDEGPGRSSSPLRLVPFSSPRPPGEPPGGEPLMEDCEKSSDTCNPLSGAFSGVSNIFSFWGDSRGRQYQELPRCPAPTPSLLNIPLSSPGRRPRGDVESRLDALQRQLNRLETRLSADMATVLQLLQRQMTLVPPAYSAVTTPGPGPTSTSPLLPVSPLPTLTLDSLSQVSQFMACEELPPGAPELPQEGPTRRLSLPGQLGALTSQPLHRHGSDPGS

Mu-type opioid receptor = Mu-type opioid receptor (Homo sapiens, UniProt P35372)
Sequence of Mu-type opioid receptor (P35372 whole entry): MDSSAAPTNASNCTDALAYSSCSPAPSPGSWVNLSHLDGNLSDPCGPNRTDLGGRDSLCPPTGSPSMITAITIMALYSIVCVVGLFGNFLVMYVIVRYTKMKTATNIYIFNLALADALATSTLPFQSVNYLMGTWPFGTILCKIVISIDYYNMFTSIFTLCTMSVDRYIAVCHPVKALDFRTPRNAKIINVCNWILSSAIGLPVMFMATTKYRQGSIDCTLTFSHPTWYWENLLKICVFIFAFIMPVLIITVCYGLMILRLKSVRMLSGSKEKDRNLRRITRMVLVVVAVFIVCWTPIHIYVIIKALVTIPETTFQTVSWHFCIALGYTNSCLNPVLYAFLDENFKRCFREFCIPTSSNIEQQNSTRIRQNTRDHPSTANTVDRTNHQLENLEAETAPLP

[4] = molecular target: cGMP-inhibited 3',5'-cyclic phosphodiesterase 3A (Homo sapiens, UniProt Q14432); type: functional
Sequence of cGMP-inhibited 3',5'-cyclic phosphodiesterase 3A (Q14432 whole entry): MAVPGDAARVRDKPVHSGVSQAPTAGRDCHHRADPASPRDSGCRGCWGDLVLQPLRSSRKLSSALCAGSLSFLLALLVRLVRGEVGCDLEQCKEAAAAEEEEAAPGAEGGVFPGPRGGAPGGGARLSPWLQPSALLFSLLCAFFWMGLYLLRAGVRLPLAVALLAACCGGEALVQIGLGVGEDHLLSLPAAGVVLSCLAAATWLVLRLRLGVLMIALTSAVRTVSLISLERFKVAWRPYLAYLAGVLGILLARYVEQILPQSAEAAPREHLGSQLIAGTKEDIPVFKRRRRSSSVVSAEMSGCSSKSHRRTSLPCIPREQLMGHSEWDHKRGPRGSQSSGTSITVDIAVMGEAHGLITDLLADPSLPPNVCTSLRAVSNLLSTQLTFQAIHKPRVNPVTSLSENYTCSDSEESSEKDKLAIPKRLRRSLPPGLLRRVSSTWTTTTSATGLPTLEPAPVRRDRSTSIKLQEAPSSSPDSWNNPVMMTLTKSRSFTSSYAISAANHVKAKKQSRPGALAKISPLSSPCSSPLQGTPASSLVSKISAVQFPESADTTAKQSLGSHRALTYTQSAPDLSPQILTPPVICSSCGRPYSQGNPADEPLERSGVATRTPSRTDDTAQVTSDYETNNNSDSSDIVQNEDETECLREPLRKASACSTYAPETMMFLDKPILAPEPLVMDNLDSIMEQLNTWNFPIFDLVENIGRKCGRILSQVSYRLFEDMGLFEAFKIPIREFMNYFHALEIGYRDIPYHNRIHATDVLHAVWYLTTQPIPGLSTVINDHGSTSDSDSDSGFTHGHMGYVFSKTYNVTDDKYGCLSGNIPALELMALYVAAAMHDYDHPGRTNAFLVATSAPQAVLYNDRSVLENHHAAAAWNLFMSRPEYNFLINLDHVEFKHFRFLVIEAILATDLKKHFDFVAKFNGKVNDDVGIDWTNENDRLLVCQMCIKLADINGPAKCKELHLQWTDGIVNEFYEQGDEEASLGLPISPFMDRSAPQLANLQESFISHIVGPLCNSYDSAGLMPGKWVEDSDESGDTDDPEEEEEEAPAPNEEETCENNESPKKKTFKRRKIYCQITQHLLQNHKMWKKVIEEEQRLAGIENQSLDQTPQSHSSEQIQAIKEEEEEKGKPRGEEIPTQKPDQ

[5] = molecular target: Sodium-dependent noradrenaline transporter (Homo sapiens, UniProt P23975)
Sequence of Sodium-dependent noradrenaline transporter (P23975 whole entry): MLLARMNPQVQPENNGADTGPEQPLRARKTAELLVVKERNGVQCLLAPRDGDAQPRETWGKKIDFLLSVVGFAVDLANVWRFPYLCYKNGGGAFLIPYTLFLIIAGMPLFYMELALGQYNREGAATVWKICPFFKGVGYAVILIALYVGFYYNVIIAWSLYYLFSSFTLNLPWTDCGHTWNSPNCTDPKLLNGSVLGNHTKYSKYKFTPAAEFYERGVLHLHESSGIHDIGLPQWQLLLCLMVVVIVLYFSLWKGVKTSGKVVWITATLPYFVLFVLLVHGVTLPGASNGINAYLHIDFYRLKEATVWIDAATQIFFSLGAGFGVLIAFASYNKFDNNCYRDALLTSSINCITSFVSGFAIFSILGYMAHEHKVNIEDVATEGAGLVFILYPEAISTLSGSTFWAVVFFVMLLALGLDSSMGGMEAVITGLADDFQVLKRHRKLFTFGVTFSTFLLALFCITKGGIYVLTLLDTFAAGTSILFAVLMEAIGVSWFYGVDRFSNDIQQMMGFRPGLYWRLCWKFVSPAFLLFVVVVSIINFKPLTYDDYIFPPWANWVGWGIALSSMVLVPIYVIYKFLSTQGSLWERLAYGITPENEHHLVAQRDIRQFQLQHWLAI

[6] = molecular target: Sodium-dependent serotonin transporter (Homo sapiens, UniProt P31645)
Sequence of Sodium-dependent serotonin transporter (P31645 whole entry): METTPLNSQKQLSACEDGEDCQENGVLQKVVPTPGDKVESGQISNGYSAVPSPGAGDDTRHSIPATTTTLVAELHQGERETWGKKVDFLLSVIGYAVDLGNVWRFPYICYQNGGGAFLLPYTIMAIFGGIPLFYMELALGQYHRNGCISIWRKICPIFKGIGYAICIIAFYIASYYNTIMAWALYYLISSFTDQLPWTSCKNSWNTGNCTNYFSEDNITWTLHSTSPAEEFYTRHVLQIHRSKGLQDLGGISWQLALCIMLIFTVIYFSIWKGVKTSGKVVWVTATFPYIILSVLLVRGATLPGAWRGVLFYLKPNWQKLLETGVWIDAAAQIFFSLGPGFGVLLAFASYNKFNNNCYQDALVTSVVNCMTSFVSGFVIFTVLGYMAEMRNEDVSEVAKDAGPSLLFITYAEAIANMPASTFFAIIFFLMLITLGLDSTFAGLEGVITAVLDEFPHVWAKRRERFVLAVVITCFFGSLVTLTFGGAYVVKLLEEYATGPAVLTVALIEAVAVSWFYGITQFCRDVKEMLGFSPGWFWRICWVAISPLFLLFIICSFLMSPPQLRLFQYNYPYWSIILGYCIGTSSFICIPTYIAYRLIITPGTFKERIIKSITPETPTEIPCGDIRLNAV

Thromboxane A2 receptor [7] = molecular target: T5, Thromboxane A2 receptor (Homo sapiens, UniProt P21731); type: functional, cell-based
T5 sequence (P21731 whole entry): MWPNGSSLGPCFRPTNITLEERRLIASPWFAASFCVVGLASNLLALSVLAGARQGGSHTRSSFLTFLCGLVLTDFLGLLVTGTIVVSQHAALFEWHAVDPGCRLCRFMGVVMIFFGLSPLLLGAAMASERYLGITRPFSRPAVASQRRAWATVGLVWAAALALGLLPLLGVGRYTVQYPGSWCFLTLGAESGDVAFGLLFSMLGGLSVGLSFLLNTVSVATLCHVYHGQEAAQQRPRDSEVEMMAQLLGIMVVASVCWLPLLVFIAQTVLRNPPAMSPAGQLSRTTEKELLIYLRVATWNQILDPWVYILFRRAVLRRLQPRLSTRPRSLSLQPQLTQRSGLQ

Thromboxane A2 receptor [8] = molecular target: T5, Thromboxane A2 receptor; type: functional, cell-based; remark: listed apart in the source

Measured: AC50
Note: assay procedure not described here.

Sequence of Acetylcholinesterase (P22303 whole entry): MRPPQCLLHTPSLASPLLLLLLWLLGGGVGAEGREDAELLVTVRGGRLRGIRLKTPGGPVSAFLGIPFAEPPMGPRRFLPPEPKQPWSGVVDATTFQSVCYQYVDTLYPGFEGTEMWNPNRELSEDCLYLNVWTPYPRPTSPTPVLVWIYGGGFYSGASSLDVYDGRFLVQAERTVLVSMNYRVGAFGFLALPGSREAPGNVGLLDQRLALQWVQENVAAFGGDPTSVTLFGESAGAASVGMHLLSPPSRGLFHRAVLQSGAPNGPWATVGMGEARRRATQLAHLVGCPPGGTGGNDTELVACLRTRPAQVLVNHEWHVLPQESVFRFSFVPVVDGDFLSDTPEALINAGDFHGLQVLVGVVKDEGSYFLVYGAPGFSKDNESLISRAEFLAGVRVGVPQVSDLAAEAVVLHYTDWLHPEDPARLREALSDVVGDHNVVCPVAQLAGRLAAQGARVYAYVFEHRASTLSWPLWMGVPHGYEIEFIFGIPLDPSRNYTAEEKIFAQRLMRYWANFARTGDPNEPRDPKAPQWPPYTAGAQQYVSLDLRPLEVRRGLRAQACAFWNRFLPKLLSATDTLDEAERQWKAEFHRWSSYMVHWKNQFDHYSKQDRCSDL

COCCOc1cnc(NS(=O)(=O)c2ccccc2)nc1 [GLYMIDINE]
> 30 µM: all assays above

CCC(=O)O[C@]1(C(=O)COC(C)=O)CC[C@H]2[C@@H]3CCC4=CC(=O)CC[C@]4(C)[C@H]3[C@@H](O)C[C@@]21C [HYDROCORTISONE ACEPONATE]
> 30 µM: all assays above

O=[N+]([O-])O[C@H]1CO[C@H]2[C@@H]1OC[C@H]2O[N+](=O)[O-] [ISOSORBIDE DINITRATE]
> 30 µM: all assays above

CC1(C)S[C@@H]2[C@H](NC(=O)[C@H](NC(=O)N3CCN(S(C)(=O)=O)C3=O)c3ccccc3)C(=O)N2[C@H]1C(=O)O [MEZLOCILLIN]
not listed: [3]
> 30 µM: all other assays above

CC(c1ccc(Cl)c(Cl)c1)N1N=C(N)CC1=O (configuration not stated) [MUZOLIMINE]
not listed: [3]
> 30 µM: all other assays above

c1cc(CN2CCCNCCNCCCNCC2)ccc1CN1CCCNCCNCCCNCC1 [PLERIXAFOR]
not listed: [3]
> 30 µM: all other assays above

O=C(NC(Cc1cc(=O)[nH]c2ccccc12)C(=O)O)c1ccc(Cl)cc1 (configuration not stated) [REBAMIPIDE]
not listed: [3]
> 30 µM: all other assays above
